Experimental data reported in patent publication US6472348B1, “Pyridone derivatives and herbicides” (Kumiai Chemical Industry Co., Ltd., priority 1996, dated 2002).

System: barnyardgrass (Ec)
Assay: Test Example 1: herbicidal effects by paddy field soil treatment;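 note: grade of growth control; 5 = at least 90%; 4 = 70 to 90%; 3 = 50 to 70%; 2 = 30 to 50%; 1 = 10 to 30%; 0 = under 10%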
Format: in vivo
Conditions: 100 g of the active ingredient per 10 ares, 21st day after the application, index 0-5 of Table 47
Experimental: (§1) (Test on Herbicidal Effects by Paddy Field Soil Treatment)
(§2) In a plastic pot (surface area: 100 cm^2) filled with paddy field soil, barnyardgrass (Ec), monochoria (Mo) and bulrush (Sc) were sown after puddling and leveling, and flooded to a water depth of 3 cm. […] The dose was 100 g of the active ingredient per 10 ares. The plants were then cultured in a green house, and the evaluation of the herbicidal effects was conducted on the 21st day after the application in accordance with the standards as identified in Table 47.

Compound | Herbicidal effects Ec
CCCOC(=O)COc1cc(-c2ccc(C(F)(F)F)n(C)c2=O)c(F)cc1Cl [1-104] | 5
C=C(Cl)CN1C(=O)COc2cc(F)c(-c3ccc(C(F)(F)F)n(C)c3=O)cc21 [Compound 2-13] | 5
CCOCCOc1cc(-c2ccc(C(F)(F)F)n(C)c2=O)c(F)cc1Cl [1-163] | 5

System: bulrush (Sc)
Assay: as above
Format: in vivo
Conditions: 100 g of the active ingredient per 10 ares, 21st day after the application, index 0-5 of Table 47
Experimental: as §1, §2

Compound | Herbicidal effects Sc
CCCOC(=O)COc1cc(-c2ccc(C(F)(F)F)n(C)c2=O)c(F)cc1Cl [1-104] | 5
C=C(Cl)CN1C(=O)COc2cc(F)c(-c3ccc(C(F)(F)F)n(C)c3=O)cc21 [Compound 2-13] | 5
CCOCCOc1cc(-c2ccc(C(F)(F)F)n(C)c2=O)c(F)cc1Cl [1-163] | 5

System: monochoria (Mo)
Assay: as above
Format: in vivo
Conditions: 100 g of the active ingredient per 10 ares, 21st day after the application, index 0-5 of Table 47
Experimental: as §1, §2

Compound | Herbicidal effects Mo
CCCOC(=O)COc1cc(-c2ccc(C(F)(F)F)n(C)c2=O)c(F)cc1Cl [1-104] | 5
C=C(Cl)CN1C(=O)COc2cc(F)c(-c3ccc(C(F)(F)F)n(C)c3=O)cc21 [Compound 2-13] | 5
CCOCCOc1cc(-c2ccc(C(F)(F)F)n(C)c2=O)c(F)cc1Cl [1-163] | 5

System: Digitaria ciliaris (Di)
Assay: Test Example 2: herbicidal effects by upland field soil treatment;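 note: grade of growth control; 5 = at least 90%; 4 = 70 to 90%; 3 = 50 to 70%; 2 = 30 to 50%; 1 = 10 to 30%; 0 = under 10%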
Format: in vivo
Conditions: 100 g of the active ingredient per 10 ares, 21st day after the application, index 0-5 of Table 47
From the text: (§3) (Test on Herbicidal Effects by Upland Field Soil Treatment)

Compound | Herbicidal effects Di
CCCOC(=O)COc1cc(-c2ccc(C(F)(F)F)n(C)c2=O)c(F)cc1Cl [1-104] | 5
CCOCCOc1cc(-c2ccc(C(F)(F)F)n(C)c2=O)c(F)cc1Cl [1-163] | 5

Same assay, conditions: 100 g of the active ingredient per 10 ares, evaluated on the 21st day after application

Compound | Herbicidal effects Di
C=C(Cl)CN1C(=O)COc2cc(F)c(-c3ccc(C(F)(F)F)n(C)c3=O)cc21 [Compound 2-13] | 5

System: barnyardgrass (Ec)
Assay: as above
Format: in vivo
Conditions: 100 g of the active ingredient per 10 ares, 21st day after the application, index 0-5 of Table 47
From the text: as §3

Compound | Herbicidal effects Ec
CCCOC(=O)COc1cc(-c2ccc(C(F)(F)F)n(C)c2=O)c(F)cc1Cl [1-104] | 5
CCOCCOc1cc(-c2ccc(C(F)(F)F)n(C)c2=O)c(F)cc1Cl [1-163] | 5

Same assay, conditions: 100 g of the active ingredient per 10 ares, evaluated on the 21st day after application

Compound | Herbicidal effects Ec
C=C(Cl)CN1C(=O)COc2cc(F)c(-c3ccc(C(F)(F)F)n(C)c3=O)cc21 [Compound 2-13] | 5

System: common lambsquarters (Ch)
Assay: as above
Format: in vivo
Conditions: 100 g of the active ingredient per 10 ares, 21st day after the application, index 0-5 of Table 47
From the text: as §3

Compound | Herbicidal effects Ch
CCCOC(=O)COc1cc(-c2ccc(C(F)(F)F)n(C)c2=O)c(F)cc1Cl [1-104] | 5
CCOCCOc1cc(-c2ccc(C(F)(F)F)n(C)c2=O)c(F)cc1Cl [1-163] | 5

Same assay, conditions: 100 g of the active ingredient per 10 ares, evaluated on the 21st day after application

Compound | Herbicidal effects Ch
C=C(Cl)CN1C(=O)COc2cc(F)c(-c3ccc(C(F)(F)F)n(C)c3=O)cc21 [Compound 2-13] | 5

System: pale smartweed (Po)
Assay: as above
Format: in vivo
Conditions: 100 g of the active ingredient per 10 ares, 21st day after the application, index 0-5 of Table 47
From the text: as §3

Compound | Herbicidal effects Po
CCCOC(=O)COc1cc(-c2ccc(C(F)(F)F)n(C)c2=O)c(F)cc1Cl [1-104] | 5
CCOCCOc1cc(-c2ccc(C(F)(F)F)n(C)c2=O)c(F)cc1Cl [1-163] | 5

Same assay, conditions: 100 g of the active ingredient per 10 ares, evaluated on the 21st day after application

Compound | Herbicidal effects Po
C=C(Cl)CN1C(=O)COc2cc(F)c(-c3ccc(C(F)(F)F)n(C)c3=O)cc21 [Compound 2-13] | 5

System: rice flatsedge (Ci)
Assay: as above
Format: in vivo
Conditions: 100 g of the active ingredient per 10 ares, 21st day after the application, index 0-5 of Table 47
From the text: as §3

Compound | Herbicidal effects Ci
CCCOC(=O)COc1cc(-c2ccc(C(F)(F)F)n(C)c2=O)c(F)cc1Cl [1-104] | 5
CCOCCOc1cc(-c2ccc(C(F)(F)F)n(C)c2=O)c(F)cc1Cl [1-163] | 5

Same assay, conditions: 100 g of the active ingredient per 10 ares, evaluated on the 21st day after application

Compound | Herbicidal effects Ci
C=C(Cl)CN1C(=O)COc2cc(F)c(-c3ccc(C(F)(F)F)n(C)c3=O)cc21 [Compound 2-13] | 5

System: slender amaranth (Am)
Assay: as above
Format: in vivo
Conditions: 100 g of the active ingredient per 10 ares, 21st day after the application, index 0-5 of Table 47
From the text: as §3

Compound | Herbicidal effects Am
CCCOC(=O)COc1cc(-c2ccc(C(F)(F)F)n(C)c2=O)c(F)cc1Cl [1-104] | 5
CCOCCOc1cc(-c2ccc(C(F)(F)F)n(C)c2=O)c(F)cc1Cl [1-163] | 5

Same assay, conditions: 100 g of the active ingredient per 10 ares, evaluated on the 21st day after application

Compound | Herbicidal effects Am
C=C(Cl)CN1C(=O)COc2cc(F)c(-c3ccc(C(F)(F)F)n(C)c3=O)cc21 [Compound 2-13] | 5

System: Diaitaria ciliaris (Di)
Assay: Test Example 3: herbicidal effects by upland field foliage treatment
Format: in vivo
Parameters: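 grade of growth control; 5 = at least 90%; 4 = 70 to 90%; 3 = 50 to 70%; 2 = 30 to 50%; 1 = 10 to 30%; 0 = under 10%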
Conditions: 100 g active ingredient per 10 ares, evaluated 14th day after treatment
Experimental: (§4) (Test on Herbicidal Effects by Upland Field Foliage Treatment)
(§5) In a plastic pot (surface area: 120 cm^2) filled with sand, barnyardgrass (Ec), Diaitaria ciliaris (Di), pale smartweed (Po), slender amaranth (Am), common lambsquarters (Ch) and rice flatsedge (Ci) were sown and covered with soil and were cultured in a green house for 2 weeks. […] The plants were then cultured in the green house, and the evaluation of the herbicidal effects was conducted on the 14th day after the treatment in accordance with the standards as identified in Table 47. Symbol—represents “not tested”.

Compound | Herbicidal effects Di
C=C(Cl)CN1C(=O)COc2cc(F)c(-c3ccc(C(F)(F)F)n(C)c3=O)cc21 [Compound 2-13] | 5

Same assay, conditions: 100 g of the active ingredient per 10 ares, evaluated on the 14th day after treatment

Compound | Herbicidal effects Di
CCCOC(=O)COc1cc(-c2ccc(C(F)(F)F)n(C)c2=O)c(F)cc1Cl [1-104] | 5
CCOCCOc1cc(-c2ccc(C(F)(F)F)n(C)c2=O)c(F)cc1Cl [1-163] | 5

System: barnyardgrass (Ec)
Assay: as above
Format: in vivo
Parameters: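 grade of growth control; 5 = at least 90%; 4 = 70 to 90%; 3 = 50 to 70%; 2 = 30 to 50%; 1 = 10 to 30%; 0 = under 10%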
Conditions: 100 g active ingredient per 10 ares, evaluated 14th day after treatment
Experimental: as §4, §5

Compound | Herbicidal effects Ec
C=C(Cl)CN1C(=O)COc2cc(F)c(-c3ccc(C(F)(F)F)n(C)c3=O)cc21 [Compound 2-13] | 5

Same assay, conditions: 100 g of the active ingredient per 10 ares, evaluated on the 14th day after treatment

Compound | Herbicidal effects Ec
CCCOC(=O)COc1cc(-c2ccc(C(F)(F)F)n(C)c2=O)c(F)cc1Cl [1-104] | 5
CCOCCOc1cc(-c2ccc(C(F)(F)F)n(C)c2=O)c(F)cc1Cl [1-163] | 5

System: common lambsquarters (Ch)
Assay: as above
Format: in vivo
Parameters: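 grade of growth control; 5 = at least 90%; 4 = 70 to 90%; 3 = 50 to 70%; 2 = 30 to 50%; 1 = 10 to 30%; 0 = under 10%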
Conditions: 100 g active ingredient per 10 ares, evaluated 14th day after treatment
Experimental: as §4, §5

Compound | Herbicidal effects Ch
C=C(Cl)CN1C(=O)COc2cc(F)c(-c3ccc(C(F)(F)F)n(C)c3=O)cc21 [Compound 2-13] | 5

Same assay, conditions: 100 g of the active ingredient per 10 ares, evaluated on the 14th day after treatment

Compound | Herbicidal effects Ch
CCCOC(=O)COc1cc(-c2ccc(C(F)(F)F)n(C)c2=O)c(F)cc1Cl [1-104] | 5
CCOCCOc1cc(-c2ccc(C(F)(F)F)n(C)c2=O)c(F)cc1Cl [1-163] | 5

System: pale smartweed (Po)
Assay: as above
Format: in vivo
Parameters: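 grade of growth control; 5 = at least 90%; 4 = 70 to 90%; 3 = 50 to 70%; 2 = 30 to 50%; 1 = 10 to 30%; 0 = under 10%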
Conditions: 100 g active ingredient per 10 ares, evaluated 14th day after treatment
Experimental: as §4, §5

Compound | Herbicidal effects Po
C=C(Cl)CN1C(=O)COc2cc(F)c(-c3ccc(C(F)(F)F)n(C)c3=O)cc21 [Compound 2-13] | 5

Same assay, conditions: 100 g of the active ingredient per 10 ares, evaluated on the 14th day after treatment

Compound | Herbicidal effects Po
CCCOC(=O)COc1cc(-c2ccc(C(F)(F)F)n(C)c2=O)c(F)cc1Cl [1-104] | 5
CCOCCOc1cc(-c2ccc(C(F)(F)F)n(C)c2=O)c(F)cc1Cl [1-163] | 5

System: rice flatsedge (Ci)
Assay: as above
Format: in vivo
Parameters: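 grade of growth control; 5 = at least 90%; 4 = 70 to 90%; 3 = 50 to 70%; 2 = 30 to 50%; 1 = 10 to 30%; 0 = under 10%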
Conditions: 100 g active ingredient per 10 ares, evaluated 14th day after treatment
Experimental: as §4, §5

Compound | Herbicidal effects Ci
C=C(Cl)CN1C(=O)COc2cc(F)c(-c3ccc(C(F)(F)F)n(C)c3=O)cc21 [Compound 2-13] | 5

Same assay, conditions: 100 g of the active ingredient per 10 ares, evaluated on the 14th day after treatment

Compound | Herbicidal effects Ci
CCCOC(=O)COc1cc(-c2ccc(C(F)(F)F)n(C)c2=O)c(F)cc1Cl [1-104] | 5
CCOCCOc1cc(-c2ccc(C(F)(F)F)n(C)c2=O)c(F)cc1Cl [1-163] | 5

System: slender amaranth (Am)
Assay: as above
Format: in vivo
Parameters: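 grade of growth control; 5 = at least 90%; 4 = 70 to 90%; 3 = 50 to 70%; 2 = 30 to 50%; 1 = 10 to 30%; 0 = under 10%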
Conditions: 100 g active ingredient per 10 ares, evaluated 14th day after treatment
Experimental: as §4, §5

Compound | Herbicidal effects Am
C=C(Cl)CN1C(=O)COc2cc(F)c(-c3ccc(C(F)(F)F)n(C)c3=O)cc21 [Compound 2-13] | 5

Same assay, conditions: 100 g of the active ingredient per 10 ares, evaluated on the 14th day after treatment

Compound | Herbicidal effects Am
CCCOC(=O)COc1cc(-c2ccc(C(F)(F)F)n(C)c2=O)c(F)cc1Cl [1-104] | 5
CCOCCOc1cc(-c2ccc(C(F)(F)F)n(C)c2=O)c(F)cc1Cl [1-163] | 5
